Measured values as given in patent US8895752B2, “Alkylsulfonyl-substituted thiazolide compounds” (priority 2007, dated 2014).
Several values for one entry are separate records, joined by “and”; a condition that tells them apart may be missing. Identical values can stand only once. Like-named read-outs stand apart in the source and are kept apart here.

Experiments:
[1] = system: HCV replicon; test: Primary HCV replicon cell assay; format: cell-based, Hepatitis C Virus; conditions: Hepatitis C virus
Method: (§1) Antiviral activity of test compounds was assessed in a 3-day assay using the stably-expressing HCV replicon cell line, AVA5 (sub-genomic CON1, genotype 1b) (Blight et al., 2000) maintained as sub-confluent cultures on 96-well plates as previously described (Okuse et al., 2005). Antiviral activity was determined by blot hybridization analysis of intracellular HCV RNA (normalized to the level of cellular B-actin RNA in each culture sample) and cytotoxicity was assessed by neutral red dye uptake after 3 days of treatment. Additional studies were performed using Huh7 cells containing another HCV replicon, H/FL-Neo, a genotype 1a full length construct (Blight et al., 2003). For studies involving human serum, standard culture medium (which contains 10% fetal bovine serum) and assay conditions were maintained.
(§2) EC50, EC90 and CC50 values (±standard deviations [S.D.]) were calculated by linear regression analysis using data combined from all treated cultures (Korba and Gerin, 1992; Okuse et al., 2005). […] Selectivity index (S.I.) was calculated as CC50/EC90 for HBV assays and CC50/EC50 for HCV assays. EC90 values were used for calculation of the S.I. in HBV assays since at least a […] depression of HBV DNA levels is typically required to achieve statistical significance in this assay system (Korba and Gerin, 1992). For combination treatments, EC50, EC90, CC50 and S.I. are presented for the first compound listed. The molar ratio of the compounds in each combination is also indicated.

[2] = Primary HCV replicon cell assay, cytotoxicity; conditions: human, HCV replicon cells (primary assay), CC50, primary assay
Method: as §1, §2

[3] = system: HBV; test: HBV antiviral assay in confluent 2.2.15 cell cultures (HBV DNA, quantitative blot hybridization); format: cell-based, Hepatitis B Virus
Method: EC50, EC90 and CC50 values (±standard deviations [S.D.]) were calculated by linear regression analysis using data combined from all treated cultures (Korba and Gerin, 1992; Okuse et al., 2005). […] Selectivity index (S.I.) was calculated as CC50/EC90 for HBV assays and CC50/EC50 for HCV assays. EC90 values were used for calculation of the S.I. in HBV assays since at least a 3-fold depression of HBV DNA levels is typically required to achieve statistical significance in this assay system (Korba and Gerin, 1992).

[4] = Cytotoxicity by neutral red dye uptake in 2.2.15 cells; conditions: human
Method: (§3) HBV antiviral assays were conducted as previous described (Korba and Gerin, 1992).
as §2

[5] = system: Wild-type HBV; test: 5-day transient transfection assay in Huh7 cells, intracellular HBV RI by Southern blot; format: cell-based, Hepatitis B Virus; conditions: Wild-type, Huh7 transient transfection; for EC50: read-out: EC50
[6] = system: HBV Mutant L180M/M204V; test: as above; format: cell-based, Hepatitis B Virus
Method: (§4) Activity against LMV-resistant (Allen et al., 1998) and ADV-resistant (Angus et al., 2003) HBV mutants was performed in a 5-day assay using a transient transfection method as previously described (Iyer et al., 2004). Antiviral activity was determined by quantitative Southern blot hybridization of intracellular HBV DNA replication intermediates (HBV RI).

[7] = system: HBV Mutant L180M; test: as above; format: cell-based, Hepatitis B Virus
Method: as §4

[8] = system: HBV Mutant M204I; test: as above; format: cell-based, Hepatitis B Virus
Method: as §4

[9] = system: HBV Mutant M204V; test: as above; format: cell-based, Hepatitis B Virus
Method: as §4

[10] = system: HBV Mutant N236T; test: as above; format: cell-based, Hepatitis B Virus
Method: as §4

[11] = system: 2.2.15 cells; test: Cytotoxicity by neutral red dye uptake in 2.2.15 cells; conditions: confluent 2.2.15 cultures, nine daily doses, neutral red uptake
Method: as §3, §2

[12] = system: HCV replicon, sub-genomic CON1, genotype 1b; test: 3-day HCV replicon assay in AVA5 cells (intracellular HCV RNA, blot hybridization); format: cell-based, Hepatitis C Virus; conditions: Genotype 1b replicon; for EC50 / EC90: 3 days, first compound listed for combinations
Method: as §1, §2

[13] = system: AVA5 cells; test: Cytotoxicity by neutral red dye uptake in AVA5 cells; format: cell-based; conditions: Genotype 1b replicon, 3 days
[14] = as above; format: cell-based; conditions: human, AVA5 cells (HCV replicon, sub-genomic CON1), Genotype 1b replicon
[15] = system: HCV replicon H/FL-Neo, genotype 1a full length; test: HCV replicon assay in Huh7 cells containing H/FL-Neo; format: cell-based, Hepatitis C Virus; conditions: Genotype 1a replicon
Method: as §1, §2

[16] = Cytotoxicity by neutral red dye uptake in Huh7 cells containing H/FL-Neo; format: cell-based; conditions: human; Genotype 1a replicon
[17] = system: HCV replication; test: HCV replicon assay, 6 days total duration, NTZ monotherapy pre-treatment and combination therapy; format: cell-based; conditions: Hepatitis C virus, 144 h, first named drug for combinations
Method: as §1, with “Antiviral activity of test compounds was assessed in a 3-day assay using the stably-expressing” left out
as §2

[18] = system: LMV-resistant and ADV-resistant HBV mutants; test: Activity against drug-resistant HBV mutants, transient transfection in Huh7 cells (overall statement); format: cell-based, Hepatitis B Virus; conditions: all drug-resistant viruses tested
Method: as §4

[19] = 2.2.15 cells, nine daily doses, read-out: Extracellular virion DNA EC50
[20] = 2.2.15 cells, nine daily doses, read-out: Extracellular virion DNA EC90
[21] = 2.2.15 cells, nine daily doses, read-out: Intracellular HBV RI EC50

CC(=O)Oc1ccccc1C(=O)Nc1nc(S(C)(=O)=O)cs1 [Compound 62, 2-{[4-(methylsulfonyl)-1,3-thiazol-2-yl]carbamoyl}phenyl acetate]
EC50 [1]: > 10 µM | EC90 [1]: > 10 µM | CC50 at 3 days [2]: > 100 µM

Nc1ccn([C@@H]2CS[C@H](CO)O2)c(=O)n1 [LMV, lamivudine]
Selectivity Index Virion ([3]; CC50/EC90, extracellular virion DNA): 15646 | Selectivity Index RI ([3]; CC50/EC90, intracellular HBV RI): 4267 | EC50 ([3]; Hepatitis B virus, read-out: Intracellular HBV RI EC50): 0.16 ± 0.03 µM | EC50 ([3]; Hepatitis B virus, 2.2.15 cells, Table 3 experiment, read-out: HBV R.I. EC50): 0.16 ± 0.02 µM | EC90 ([3]; Hepatitis B virus, 2.2.15 cells, Table 3 experiment, read-out: HBV R.I. EC90): 0.56 ± 0.07 µM | EC50 ([3]; Hepatitis B virus, 2.2.15 cells, Table 3 experiment, read-out: Virion production EC50): 0.05 ± 0.01 µM | EC90 ([3]; Hepatitis B virus, 2.2.15 cells, Table 3 experiment, read-out: Virion production EC90): 0.15 ± 0.02 µM | EC50 ([3]; Hepatitis B virus, 2.2.15 cells, nine daily doses, read-out: Extracellular virion DNA EC50): 0.05 ± 0.01 µM | EC90 ([3]; Hepatitis B virus, 2.2.15 cells, nine daily doses, read-out: Extracellular virion DNA EC90): 0.15 ± 0.02 µM | EC90 ([3]; Hepatitis B virus, 2.2.15 cells, nine daily doses, read-out: Intracellular HBV RI EC90): 0.55 ± 0.06 µM | CC50 at 9 days [4]: 2350 ± 88 µM | EC90 ([5]; Hepatitis B virus, Huh-7): 0.9 ± 0.2 µM | EC50 ([5]; Hepatitis B virus, Huh-7): 0.2 ± 0.1 µM | EC50 ([6]; Hepatitis B virus, Huh-7): > 100 µM | EC90 ([6]; Hepatitis B virus, Huh-7): > 100 µM | EC50 ([7]; Hepatitis B virus, Huh-7): 16 ± 2 µM | EC90 ([7]; Hepatitis B virus, Huh-7): 46 ± 5.6 µM | EC50 ([8]; Hepatitis B virus, Huh-7): > 100 µM | EC90 ([8]; Hepatitis B virus, Huh-7): > 100 µM | EC50 ([9]; Hepatitis B virus, Huh-7): > 100 µM | EC90 ([9]; Hepatitis B virus, Huh-7): > 100 µM | EC50 ([10]; Hepatitis B virus, Huh-7): 0.3 ± 0.1 µM | EC90 ([10]; Hepatitis B virus, Huh-7): 1.2 ± 0.2 µM

O=C(Nc1ncc(Cl)s1)c1ccccc1O [RM4848]
EC50 [3, 19]: 0.37 ± 0.07 µM | EC90 [3, 20]: 1.7 ± 0.2 µM | CC50 [11]: > 100 µM | EC50 [12]: > 20 µM | EC90 [12]: > 20 µM | CC50 [13]: 15 ± 0.1 µM

C[C@@]1(O)[C@H](O)[C@@H](CO)O[C@H]1n1ccc(N)nc1=O [2′CmeC, 2′-C-methyl cytidine]
Selectivity Index ([12]; CC50/EC50): >188 | EC50 ([12]; Hepatitis C virus, Ava5, 72 h): 1.6 ± 0.2 µM | EC90 ([12]; Hepatitis C virus, Ava5, 72 h): 8.3 ± 0.7 µM | CC50 at 3 days [14]: > 300 µM | Selectivity Index ([15]; CC50/EC50): >167 | EC50 ([15]; Hepatitis C virus, Huh-7): 1.8 ± 0.2 µM | EC90 ([15]; Hepatitis C virus, Huh-7): 8.1 ± 0.8 µM | CC50 at 3 days [16]: > 300 µM | EC50 [17]: 1.3 ± 0.2 µM | EC90 [17]: 5.8 ± 0.9 µM

CS(=O)(=O)Oc1ccccc1C(=O)Nc1nccs1 [Compound 11, 2-(thiazol-2-ylcarbamoyl)phenyl methanesulfonate]
EC50 [1]: > 10 µM | EC90 [1]: > 10 µM | CC50 at 3 days [2]: > 100 µM | melting point: 185.5 to 187.8 °C

CSc1cnc(NC(=O)c2ccc(OC(C)=O)cc2)s1
melting point: 193.3 to 195.5 °C and 193.5 to 195.5 °C

CSc1cnc(NC(=O)c2ccccc2O)s1
melting point: 225 to 226 °C

Cc1ccc(C(=O)Nc2ncc(Cl)s2)c(O)c1 [RM4852]
EC50 [3, 19]: 1 ± 0.1 µM | EC90 [3, 20]: 3.3 ± 0.3 µM | EC50 [3, 21]: 2.7 ± 0.3 µM | EC90 ([3]; 2.2.15 cells, nine daily doses, read-out: Intracellular HBV RI EC90): 6.3 ± 0.7 µM | CC50 [11]: > 100 µM | EC50 [12]: > 20 µM | EC90 [12]: > 20 µM | CC50 [13]: 6.7 ± 0.4 µM

Cc1ccc(O)c(C(=O)Nc2ncc(Cl)s2)c1 [RM4850]
EC50 [3, 19]: 0.33 ± 0.07 µM | EC90 [3, 20]: 0.83 ± 0.1 µM | EC50 [3, 21]: 0.9 ± 0.1 µM | CC50 [11]: > 100 µM | EC90 [5]: 2 ± 0.3 µM | EC50 [5]: 0.73 ± 0.08 µM | EC50 ([6]; L180M/M204V, read-out: EC50): 0.87 ± 0.11 µM | EC90 ([6]; L180M/M204V, read-out: EC90): 2.1 ± 0.3 µM | EC50 ([7]; L180M, read-out: EC50): 0.83 ± 0.09 µM | EC90 ([7]; L180M, read-out: EC90): 2.2 ± 0.2 µM | EC50 ([8]; M204I, read-out: EC50): 1 ± 0.2 µM | EC90 ([8]; M204I, read-out: EC90): 2.4 ± 0.3 µM | EC50 ([9]; M204V, read-out: EC50): 0.8 ± 0.1 µM | EC90 ([9]; M204V, read-out: EC90): 2.1 ± 0.3 µM | EC50 ([10]; N236T, read-out: EC50): 0.67 ± 0.08 µM | EC90 ([10]; N236T, read-out: EC90): 2.2 ± 0.2 µM | differences in potency against drug-resistant viruses relative to wild-type HBV [18]: No significant differences | EC50 [12]: > 20 µM | EC90 [12]: > 20 µM | CC50 [13]: 2.3 ± 0.2 µM
